The target of this test is T1, human trace amine associated receptor 1 (hTAAR1) (Homo sapiens, UniProt Q96RJ0).
T1 construct: gene TAAR1; hTAAR1 with the first nine amino acids of the β2-adrenergic receptor added at N-terminus
T1 sequence (Q96RJ0 1-339): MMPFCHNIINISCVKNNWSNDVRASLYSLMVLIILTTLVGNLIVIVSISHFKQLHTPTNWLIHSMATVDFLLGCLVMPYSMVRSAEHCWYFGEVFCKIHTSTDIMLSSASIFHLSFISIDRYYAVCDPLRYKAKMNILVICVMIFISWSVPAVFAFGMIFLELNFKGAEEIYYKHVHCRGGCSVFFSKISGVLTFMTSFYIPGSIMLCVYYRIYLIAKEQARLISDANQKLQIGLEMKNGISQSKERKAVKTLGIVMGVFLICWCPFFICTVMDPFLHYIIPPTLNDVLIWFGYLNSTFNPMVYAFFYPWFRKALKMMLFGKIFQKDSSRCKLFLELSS
The test is described as follows: [3H]-cAMP accumulation (column assay) in HEK-293 cells transfected with hTAAR1; no effect in mock cells. Format: cell-based. Background: cAMP levels reflect the balance of adenylyl cyclase and phosphodiesterase activity.

Like-named read-outs stand apart in the source and are kept apart here.

In general, EC50 refers to the concentration needed to bring the measured effect to its halfway point.

`NCCc1ccc(O)cc1` [tyramine]: the EC50 (read-out: EC50) was found to be 320 ± 100 nM. `COc1cc(CCN)ccc1O` [3-MT, 3-methoxytyramine]: the concentration for a half-maximal effect (EC50) was 700 ± 180 nM.

(Values after PMC2956650, “The Dopamine Metabolite 3-Methoxytyramine Is a Neuromodulator” (PLoS ONE, 2010).)
